# Reference: patent publication US20160237059A1, “HETEROCYCLIC SUBSTITUTED TRIFLUOROMETHYL PYRIMIDINONES AND THEIR USE” (BAYER PHARMA AKTIENGESELLSCHAFT, priority 2013, published 2016)
# Columns and labels:
# Assay type in all cases: cell-based
# murine CCR2 [1] = target: T1, murine CCR2 (Mus musculus, UniProt P51683); assay: Functional β-arrestin recruiting test with murine MCP-1 (B-2b); settings: U2OS β-arrestin cell line transfected with murine CCR2; agonist murine MCP-1; in some cases means of several determinations
# T1 construct: host or cells: U2OS β-arrestin cell line
# T1 sequence (P51683 whole entry): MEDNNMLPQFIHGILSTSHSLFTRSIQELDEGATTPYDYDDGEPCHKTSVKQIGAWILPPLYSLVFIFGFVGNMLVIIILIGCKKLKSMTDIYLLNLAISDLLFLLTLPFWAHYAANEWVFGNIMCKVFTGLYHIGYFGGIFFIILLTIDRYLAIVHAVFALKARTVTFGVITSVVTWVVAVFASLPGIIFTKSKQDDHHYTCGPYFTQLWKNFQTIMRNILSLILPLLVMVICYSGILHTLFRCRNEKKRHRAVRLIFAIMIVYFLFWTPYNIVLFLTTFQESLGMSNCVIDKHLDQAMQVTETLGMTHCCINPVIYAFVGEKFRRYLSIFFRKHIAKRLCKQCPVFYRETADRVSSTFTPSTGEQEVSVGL
# Procedure, shortened: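 In a PathHunter β-galactosidase complementation assay, U2OS cells expressing murine CCR2 were preincubated 10 min with compound (10-point, 1:3.16 dilutions), then challenged with murine MCP-1 at its predetermined EC50 for 90 min at 37 °C. Luminescence was read after 60 min, and IC50 was fitted with a 4-parameter Hill function.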
# murine CCR2 [2] = target: T1, murine CCR2; assay: Functional β-arrestin recruiting test with human MCP-1 (B-2a); settings: U2OS β-arrestin cell line transfected with murine CCR2; agonist human MCP-1 at EC50 (about 3 nM); in some cases means of several determinations
# Procedure, shortened: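 Antagonist mode in U2OS cells expressing murine CCR2, read by PathHunter β-galactosidase complementation luminescence. Cells pre-incubated 10 min with 10-point compound dilutions (1:3.16 steps), then stimulated with human MCP-1 at its EC50 (usually about 3 nM) for 90 min at 37° C.; IC50 from 4-parameter logistic fit.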
# human CCR2 = target: T2, human CCR2 (Homo sapiens, UniProt P41597); assay: Functional Ca2+ release test (B-1); settings: Chem-1 cell line transfected with human CCR2; 50% inhibition of the MCP-1 effect, MCP-1 at EC50 (about 5 nM); in some cases means of several determinations
# T2 construct: host or cells: Chem-1 cell line
# T2 sequence (P41597 1-360 isoform P41597-2): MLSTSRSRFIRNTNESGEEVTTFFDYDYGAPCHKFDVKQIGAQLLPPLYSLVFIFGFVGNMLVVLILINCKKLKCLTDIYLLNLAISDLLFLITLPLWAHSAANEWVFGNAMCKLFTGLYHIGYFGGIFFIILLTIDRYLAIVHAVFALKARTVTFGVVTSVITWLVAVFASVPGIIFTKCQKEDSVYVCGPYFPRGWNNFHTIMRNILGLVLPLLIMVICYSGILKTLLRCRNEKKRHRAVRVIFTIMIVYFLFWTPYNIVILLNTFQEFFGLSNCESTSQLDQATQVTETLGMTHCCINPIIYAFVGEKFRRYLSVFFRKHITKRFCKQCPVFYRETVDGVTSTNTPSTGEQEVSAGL
# Procedure, shortened: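 Inhibition of MCP-1-evoked Ca2+ release was measured over 120 s by fluorescence imaging in Fluo-4-loaded, human CCR2-transfected Chem-1 cells. Compounds, tested in 10-point 1:3.16 series, were added 10 min before agonist at its EC50 (typically about 5 nM). IC50 values were obtained by 4-parameter logistic fitting.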
Compound,IC50 (murine CCR2 [1]) [nM],IC50 (murine CCR2 [2]) [nM],IC50 (human CCR2) [nM]
"O=c1[nH]c(-c2n[nH]cc2Cl)nc(C(F)(F)F)c1Oc1ccc(Cl)c(Cl)c1 [Example 74, 2-(4-chloro-1H-pyrazol-3-yl)-5-(3,4-dichlorophenoxy)-6-(trifluoromethyl)pyrimidin-4(3H)-one]",59,2.9,1.1
"O=c1[nH]c(-c2n[nH]cc2Cl)nc(C(F)(F)F)c1Cc1ccc(Cl)c(Cl)c1 [Example 75, 2-(4-chloro-1H-pyrazol-3-yl)-5-(3,4-dichlorobenzyl)-6-(trifluoromethyl)pyrimidin-4(3H)-one]",102,29,1.3
"O=c1[nH]c(-c2n[nH]cc2Cl)nc(C(F)(F)F)c1Cc1ccc(Cl)c(C(F)(F)F)c1 [Example 76, 2-(4-chloro-1H-pyrazol-3-yl)-5-[4-chloro-3-(trifluoromethyl)benzyl]-6-(trifluoromethyl)pyrimidin-4(3H)-one]",111,26,1.5
"O=c1[nH]c(-c2n[nH]cc2Cl)nc(C(F)(F)F)c1Oc1ccc(Cl)c(C(F)(F)F)c1 [Example 77, 2-(4-chloro-1H-pyrazol-3-yl)-5-[4-chloro-3-(trifluoromethyl)phenoxy]-6-(trifluoromethyl)pyrimidin-4(3H)-one]",18,6.3,2
"O=c1[nH]c(-c2ncon2)nc(C(F)(F)F)c1Oc1ccc(Cl)c(C(F)(F)F)c1 [Example 78, 5-[4-Chloro-3-(trifluoromethyl)phenoxy]-2-(1,2,4-oxadiazol-3-yl)-6-(trifluoromethyl)pyrimidin-4(3H)-one]",50,16,3.7
Cc1nc(-c2nc(C(F)(F)F)c(Oc3ccc(Cl)c(Cl)c3)c(=O)[nH]2)no1 [Example 83],308,79,20
"O=c1[nH]c(Cc2ccno2)nc(C(F)(F)F)c1Oc1ccc(Cl)c(Cl)c1 [Example 95, 5-(3,4-dichlorophenoxy)-2-(1,2-oxazol-5-ylmethyl)-6-(trifluoromethyl)pyrimidin-4(3H)-one]",449,77,27
"Nc1cnn(-c2nc(C(F)(F)F)c(Cc3ccc(Cl)c(C(F)(F)F)c3)c(=O)[nH]2)c1 [Example 107, 2-(4-Amino-1H-pyrazol-1-yl)-5-[4-chloro-3-(trifluoromethyl)benzyl]-6-(trifluoromethyl)pyrimidin-4(3H)-one]",53,28,2.4
"Nc1cnn(-c2nc(C(F)(F)F)c(Oc3ccc(Cl)c(C(F)(F)F)c3)c(=O)[nH]2)c1 [Example 108, 2-(4-amino-1H-pyrazol-1-yl)-5-[4-chloro-3-(trifluoromethyl)phenoxy]-6-(trifluoromethyl)pyrimidin-4(3H)-one]",27,2.7,0.8
"Nc1ccc(-c2nc(C(F)(F)F)c(Oc3ccc(Cl)c(C(F)(F)F)c3)c(=O)[nH]2)nc1 [Example 113, 2-(5-Aminopyridin-2-yl)-5-[4-chloro-3-(trifluoromethyl)phenoxy]-6-(trifluoromethyl)pyrimidin-4(3H)-one]",16,8.3,0.4
"O=c1[nH]c(-c2ncon2)nc(C(F)(F)F)c1Oc1ccc(Cl)c(Cl)c1 [compound 79, 5-(3,4-Dichlorophenoxy)-2-(1,2,4-oxadiazol-3-yl)-6-(trifluoromethyl)pyrimidin-4(3H)-one]",195,53,4.2
